Patent publication US8415317B2, “Adjuvant compositions and methods for enhancing immune responses to polynucleotide-based vaccines” (priority 1999, dated 2013)
“Also recorded” adds a separate entry of the source.

Legend:
[1] = system: influenza nuclear protein (NP); parameters: species or system mice; conditions: mouse, in vivo
[2] = system: hemagglutinin (HA); parameters: species or system humans; conditions: in vivo
[3] = Tolerability of i.m. injection in the mouse model; type: in vivo; conditions: highest dose tested: 100 μg VR4700 plasmid+48 μg GAP-DMORIE+60 μg DPyPE per mouse
Description: All cytofectin/co-lipid formulations used in this study remained uniformly opaque for several hours after preparation at room temperature without any visible aggregation. Formulations were injected 20 min-1.5 hours after complexation.

| Compound | level of antibody stimulation (GMT relative to that for pDNA alone) [1] | humoral immune response, level of antibody titers from pDNA immunization [1] | immune responses of human subjects, HA GMT antibody titer [2] | discomfort or adverse reactions when injected into mouse muscle [3] |
| --- | --- | --- | --- | --- |
| CCCCCCCCCCCCCCOCC(C[N+](C)(C)CCO)OCCCCCCCCCCCCCC.[Br-] (racemic) [DMRIE, (±)-N-(2-hydroxyethyl)-N,N-dimethyl-2,3-bis(tetradecyloxy)-1-propanaminium bromide] | equally active |  |  |  |
| CCCC/C=C\CCCCCCCCOCC(C[N+](C)(C)CCCN)OCCCCCCCC/C=C\CCCC.[Br-] (racemic) [GAP-DMORIE, (±)-N-(3-aminopropyl)-N,N-dimethyl-2,3-bis(syn-9-tetradeceneyloxy)-1-propanaminium bromide] | markedly enhances antibody responses; also recorded: more active than either DMORIE or GAP-DMRIE | synergistic effect to further enhance the humoral immune response | induced | did not appear to produce discomfort or result in any adverse reactions |
| CCCCCCCCCCCCCCOCC(C[N+](C)(C)CCCN)OCCCCCCCCCCCCCC.[Br-] (racemic) [GAP-DMRIE, (±)-N-(3-aminopropyl)-N,N-dimethyl-2,3-(bis-tetradecyloxy)-1-propanaminium bromide] | no apparent advantage |  |  |  |
| CCCCCCCC/C=C\CCCCCCCCOCC(C[N+](C)(C)CCNC(=O)C(CCCNCCCN)NCCCN)OCCCCCCCC/C=C\CCCCCCCC.Cl.Cl.Cl.Cl.[Cl-] (stereo not shown) [DOSPA, 2,3-dioleyloxy-N-(2-(sperminecarboxamido)ethyl)-N,N-dimethyl-1-propanaminium pentahydrochloride] | less active than DORIE; also recorded: dramatically decreases the level of antibody titers relative to those seen for pDNA alone |  |  |  |
